Reference: patent publication US20260092070A1, “INHIBITORS OF CANINE JANUS KINASE AND USES THEREOF” (ANIMOL DISCOVERY, INC., priority 2023, published 2026)
pIC50: −log10 of the molar value.

Experiments:
JAK-1 = JAK-1 (Homo sapiens, UniProt P23458); assay: JAK enzymatic assay (Eurofins KinaseProfiler/IC50Profiler, radiometric), JAK-1; conditions: for JAK1/JAK2 selectivity: selectivity IC50 ratio for JAK1 versus JAK2, human enzymes
Description: (§1) All enzyme assays were conducted according to Eurofins Discovery's KinaseProfiler™ and IC50Profiler™ services.
(SEQ ID NO.: 1) peptide substrate, 10 mM magnesium acetate and [gamma-33P]-ATP (specific activity and concentration as required). The reaction was initiated by the addition of the Mg/ATP mix. After incubation for 40 minutes at room temperature, the reaction was stopped by the addition of phosphoric acid to a concentration of 0.5%. An aliquot of the reaction was then spotted onto a filter and washed four times for 4 minutes in 0.425% phosphoric acid and once with methanol prior to drying and scintillation counting. A known inhibitor, Staurosporine, was used as a positive control for the assay.
Data was then imported into an internal application where each data point was expressed as % inhibition based on uninhibited and no enzyme controls. […] Inhibition values for the JAK enzymes (IC50 values) for each compound were stratified into four groups.

Human JAK-2 = Human JAK-2 (Homo sapiens, UniProt O60674); assay: JAK enzymatic assay (Eurofins KinaseProfiler/IC50Profiler, radiometric), JAK-2; assay type: biochemical; conditions: human JAK-2 enzyme, 9 concentrations; read-out: JAK2 affinity (IC50) category
Sequence of Human JAK-2 (O60674 whole entry): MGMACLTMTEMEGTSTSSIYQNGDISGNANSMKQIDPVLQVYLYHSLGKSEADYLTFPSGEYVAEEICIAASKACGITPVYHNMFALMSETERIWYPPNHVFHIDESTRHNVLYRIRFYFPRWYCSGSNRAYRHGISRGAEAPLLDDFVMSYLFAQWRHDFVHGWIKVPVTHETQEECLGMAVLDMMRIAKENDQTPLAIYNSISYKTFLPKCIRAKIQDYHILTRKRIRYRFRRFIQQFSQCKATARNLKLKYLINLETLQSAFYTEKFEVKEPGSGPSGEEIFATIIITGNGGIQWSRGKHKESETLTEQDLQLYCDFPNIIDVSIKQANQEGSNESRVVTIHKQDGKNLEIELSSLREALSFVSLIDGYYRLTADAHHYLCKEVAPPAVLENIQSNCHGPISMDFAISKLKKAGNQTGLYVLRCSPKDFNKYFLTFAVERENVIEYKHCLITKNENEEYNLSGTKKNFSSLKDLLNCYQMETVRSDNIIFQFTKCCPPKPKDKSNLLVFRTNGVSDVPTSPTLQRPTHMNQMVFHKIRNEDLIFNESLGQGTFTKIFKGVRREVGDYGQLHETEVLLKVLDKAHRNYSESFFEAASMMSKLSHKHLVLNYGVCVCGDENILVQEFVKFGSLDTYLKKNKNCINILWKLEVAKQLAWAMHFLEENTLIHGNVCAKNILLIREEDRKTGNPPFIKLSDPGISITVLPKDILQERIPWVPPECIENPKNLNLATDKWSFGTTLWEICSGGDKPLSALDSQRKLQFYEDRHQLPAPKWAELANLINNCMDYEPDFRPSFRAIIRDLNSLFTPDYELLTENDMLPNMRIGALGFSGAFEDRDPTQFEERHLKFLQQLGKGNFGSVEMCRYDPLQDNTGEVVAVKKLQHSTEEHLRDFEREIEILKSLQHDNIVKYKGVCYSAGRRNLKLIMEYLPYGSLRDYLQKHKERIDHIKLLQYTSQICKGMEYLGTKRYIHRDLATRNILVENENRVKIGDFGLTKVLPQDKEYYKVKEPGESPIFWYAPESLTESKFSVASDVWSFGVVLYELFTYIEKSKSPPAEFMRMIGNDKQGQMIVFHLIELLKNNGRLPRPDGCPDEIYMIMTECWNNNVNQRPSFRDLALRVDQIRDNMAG
Description: as §1
(SEQ ID NO: 2) peptide substrate, 10 mM magnesium acetate and [gamma-33P]-ATP (specific activity and concentration as required). The reaction was initiated by the addition of the Mg/ATP mix. After incubation for 40 minutes at room temperature, the reaction was stopped by the addition of phosphoric acid to a concentration of 0.5%. An aliquot of the reaction was then spotted onto a filter and washed four times for 4 minutes in 0.425% phosphoric acid and once with methanol prior to drying and scintillation counting.
Data was then imported into an internal application where each data point was expressed as % inhibition based on uninhibited and no enzyme controls.

Sequence of JAK-1 (P23458 whole entry): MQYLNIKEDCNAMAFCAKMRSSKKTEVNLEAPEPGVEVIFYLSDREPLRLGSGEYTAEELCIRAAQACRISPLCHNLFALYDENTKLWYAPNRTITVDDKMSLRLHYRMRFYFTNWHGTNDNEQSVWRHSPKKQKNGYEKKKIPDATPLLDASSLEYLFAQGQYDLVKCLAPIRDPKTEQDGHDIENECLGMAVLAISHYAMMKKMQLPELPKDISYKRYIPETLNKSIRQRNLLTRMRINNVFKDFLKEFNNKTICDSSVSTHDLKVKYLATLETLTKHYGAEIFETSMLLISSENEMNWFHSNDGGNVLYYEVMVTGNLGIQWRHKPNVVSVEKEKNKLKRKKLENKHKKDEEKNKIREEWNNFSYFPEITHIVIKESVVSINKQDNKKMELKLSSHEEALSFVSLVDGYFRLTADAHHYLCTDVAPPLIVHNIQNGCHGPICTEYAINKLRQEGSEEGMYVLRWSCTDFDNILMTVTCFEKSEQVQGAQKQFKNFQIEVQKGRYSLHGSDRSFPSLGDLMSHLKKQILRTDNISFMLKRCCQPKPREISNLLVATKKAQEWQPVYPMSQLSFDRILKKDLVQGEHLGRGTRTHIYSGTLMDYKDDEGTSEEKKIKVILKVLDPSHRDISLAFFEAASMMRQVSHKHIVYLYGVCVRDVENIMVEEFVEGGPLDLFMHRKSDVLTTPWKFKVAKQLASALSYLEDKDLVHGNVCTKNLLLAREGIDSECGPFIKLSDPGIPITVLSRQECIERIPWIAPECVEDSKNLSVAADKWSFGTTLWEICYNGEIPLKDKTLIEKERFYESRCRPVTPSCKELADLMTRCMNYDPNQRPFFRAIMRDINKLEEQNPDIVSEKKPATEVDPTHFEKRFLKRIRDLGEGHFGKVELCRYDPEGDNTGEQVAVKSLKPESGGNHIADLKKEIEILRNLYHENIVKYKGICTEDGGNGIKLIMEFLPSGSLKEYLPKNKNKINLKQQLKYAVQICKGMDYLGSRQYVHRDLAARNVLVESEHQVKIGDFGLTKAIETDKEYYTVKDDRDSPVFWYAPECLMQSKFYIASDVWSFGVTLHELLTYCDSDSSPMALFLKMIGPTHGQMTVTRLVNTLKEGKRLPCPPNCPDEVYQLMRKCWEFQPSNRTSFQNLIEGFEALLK

pIC50 (JAK-1)	JAK1/JAK2 selectivity (JAK-1)	pIC50 (Human JAK-2)	SMILES
< 6.00	–	< 6.00	CC1CCCN(C(=O)C2CCN(C(=O)CN3CCN(c4nc[nH]c5nccc4-5)CC3)CC2)C1 (stereo not shown) [Compound 23, 1-[4-(3-methylpiperidine-1-carbonyl)piperidin-1-yl]-2-(4-[1H-pyrrolo[2,3-d]pyrimidin-4-yl]piperazin-1-yl)ethan-1-one]
< 6.00	–	< 6.00	CC(C)N(C)C(=O)C1CCN(C(=O)CN2CCN(c3nc[nH]c4nccc3-4)CC2)CC1 [Compound 24, N-methyl-N-(propan-2-yl)-1-[2-(4-{1H-pyrrolo[2,3-d]pyrimidin-4-yl}piperazin-1-yl)acetyl]piperidine-4-carboxamide]
> 6.60	1	> 6.60	O=C(CN1CCN(c2nc[nH]c3nccc2-3)CC1)Nc1ccc(S(=O)(=O)Nc2ncccn2)cc1 [Compound 25, N-{4-[(pyrimidin-2-yl)sulfamoyl]phenyl}-2-(4-{1H-pyrrolo[2,3-d]pyrimidin-4-yl}piperazin-1-yl)acetamide]
6.30 to 6.60	>22	< 6.00	O=C(CN1CCN(c2nc[nH]c3nccc2-3)CC1)N1CCC(Cc2ccccc2)CC1 [Compound 26, 1-(4-benzylpiperidin-1-yl)-2-(4-{1H-pyrrolo[2,3-d]pyrimidin-4-yl}piperazin-1-yl)ethan-1-one]
> 6.60	14	< 6.00	NS(=O)(=O)c1cccc(NC(=O)CN2CCN(c3nc[nH]c4nccc3-4)CC2)c1 [Compound 27, 2-(4-{1H-pyrrolo[2,3-d]pyrimidin-4-yl}piperazin-1-yl)-N-(3-sulfamoylphenyl)acetamide]
6.30 to 6.60	19	< 6.00	O=C(CN1CCN(c2nc[nH]c3nccc2-3)CC1)N1CCN(C(=O)Nc2ccccc2)CC1 [Compound 28, N-phenyl-4-[2-(4-{1H-pyrrolo[2,3-d]pyrimidin-4-yl}piperazin-1-yl)acetyl]piperazine-1-carboxamide]
6.00 to 6.30	11	< 6.00	CN(C)S(=O)(=O)c1cccc(NC(=O)CN2CCN(c3nc[nH]c4nccc3-4)CC2)c1 [Compound 29, N-[3-(dimethylsulfamoyl)phenyl]-2-(4-{1H-pyrrolo[2,3-d]pyrimidin-4-yl}piperazin-1-yl)acetamide]
< 6.00	6	< 6.00	O=C(CN1CCN(c2nc[nH]c3nccc2-3)CC1)Nc1cccc(S(=O)(=O)N2CCOCC2)c1 [Compound 30, N-[3-(morpholine-4-sulfonyl)phenyl]-2-(4-{1H-pyrrolo[2,3-d]pyrimidin-4-yl}piperazin-1-yl)acetamide]
> 6.60	4	< 6.00	O=C(CN1CCN(c2nc[nH]c3nccc2-3)CC1)Nc1ccc(S(=O)(=O)N2CCCCC2)cc1 [Compound 31, N-[4-(piperidine-1-sulfonyl)phenyl]-2-(4-{1H-pyrrolo[2,3-d]pyrimidin-4-yl}piperazin-1-yl)acetamide]
6.30 to 6.60	23	< 6.00	O=C(CN1CCN(c2nc[nH]c3nccc2-3)CC1)Nc1cccc(S(=O)(=O)N2CCCC2)c1 [Compound 32, N-[3-(pyrrolidine-1-sulfonyl)phenyl]-2-(4-{1H-pyrrolo[2,3-d]pyrimidin-4-yl}piperazin-1-yl)acetamide]
> 6.60	>100	< 6.00	O=C(CN1CCN(c2nc[nH]c3nccc2-3)CC1)Nc1ccc(/N=N/c2ccccc2)cc1 [Compound 33, N-[4-(2-phenyldiazen-1-yl)phenyl]-2-(4-{1H-pyrrolo[2,3-d]pyrimidin-4-yl}piperazin-1-yl)acetamide]
6.30 to 6.60	23	< 6.00	CN(C)S(=O)(=O)c1cc(NC(=O)CN2CCN(c3nc[nH]c4nccc3-4)CC2)ccc1Cl [Compound 34, N-[4-chloro-3-(dimethylsulfamoyl)phenyl]-2-(4-{1H-pyrrolo[2,3-d]pyrimidin-4-yl}piperazin-1-yl)acetamide]
6.00 to 6.30	11	< 6.00	Cc1ccc(NC(=O)CN2CCN(c3nc[nH]c4nccc3-4)CC2)cc1S(=O)(=O)N(C)C [Compound 35, N-[3-(dimethylsulfamoyl)-4-methylphenyl]-2-(4-{1H-pyrrolo[2,3-d]pyrimidin-4-yl}piperazin-1-yl)acetamide]
< 6.00	9	< 6.00	CC(C(=O)Nc1cccc(S(=O)(=O)N(C)C)c1)N1CCN(c2nc[nH]c3nccc2-3)CC1 (stereo not shown) [Compound 36]
6.30 to 6.60	15	< 6.00	CC(C)N(C)S(=O)(=O)c1ccc(NC(=O)CN2CCN(c3nc[nH]c4nccc3-4)CC2)cc1 [Compound 37, N-{4-[methyl(propan-2-yl)sulfamoyl]phenyl}-2-(4-{1H-pyrrolo[2,3-d]pyrimidin-4-yl}piperazin-1-yl)acetamide]
6.00 to 6.30	6	< 6.00	NS(=O)(=O)c1cccc(NC(=O)CCN2CCN(c3nc[nH]c4nccc3-4)CC2)c1 [Compound 38]
6.00 to 6.30	1	< 6.00	O=C(CCN1CCN(c2nc[nH]c3nccc2-3)CC1)Nc1cccc(S(=O)(=O)N2CCCC2)c1 [Compound 39]
6.30 to 6.60	11	< 6.00	CN(C)S(=O)(=O)c1ccc(NC(=O)CCN2CCN(c3nc[nH]c4nccc3-4)CC2)cc1 [Compound 40]
6.00 to 6.30	10	< 6.00	CN(C)S(=O)(=O)c1ccccc1CNC(=O)CN1CCN(c2nc[nH]c3nccc2-3)CC1 [Compound 41, N-{[2-(dimethylsulfamoyl)phenyl]methyl}-2-(4-{1H-pyrrolo[2,3-d]pyrimidin-4-yl}piperazin-1-yl)acetamide]

SMILES	pIC50 (JAK-1)	JAK1/JAK2 selectivity (JAK-1)	pIC50 (Human JAK-2)
CCN(CC)S(=O)(=O)c1ccc(NC(=O)CN2CCN(c3ncnc4[nH]ccc34)CC2)cc1 [Compound 15, 2-(4-(7H-pyrrolo[2,3-d]pyrimidin-4-yl)piperazin-1-yl)-N-(4-(N,N-diethylsulfamoyl)phenyl)acetamide]	6.30 to 6.60	9	< 6.00
O=C(Nc1ccccc1)C1CCN(C(=O)CN2CCN(c3ncnc4[nH]ccc34)CC2)CC1 [Compound 16, 1-(2-(4-(7H-pyrrolo[2,3-d]pyrimidin-4-yl)piperazin-1-yl)acetyl)-N-phenylpiperidine-4-carboxamide]	6.30 to 6.60	19	< 6.00
